Experimental data reported in patent US11021444B2, “Antiviral compounds” (priority 2013, dated 2021).
Where two headings read alike, the source gives them in different places.

How the values were obtained:
[1] = tested on: Respiratory Syncytial Virus (RSV) long strain; assay: microbe, parasite or virus in culture; format: cell-based; conditions: human respiratory syncytial virus, Tables A and B list compounds by EC50 band
Procedure, shortened: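 CPE-reduction format: viability measured colorimetrically with CCK-8 (450 nm, 630 nm reference) after 3-4 h, following 5-day infection at 37 °C, 5% CO2. Cells were HEp-2; inoculum 100 TCID50/well; duplicate 9-point 1/3 series starting at 100 μM or 1 μM.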

RSV replicon = assay: microbe, parasite or virus in culture; format: cell-based; conditions: human respiratory syncytial virus, read-out: EC50, the concentration of the drug required for reducing RSV replicon RNA by 50%
recombinant RSV complex = recombinant RSV complex (Human respiratory syncytial virus A, UniProt P28887); assay: RSV Polymerase Inhibition Assay; format: biochemical
Procedure, shortened: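 Inhibition measured as reduced incorporation of radiolabel into RNA products, detected by scintillation counting. Reactions: recombinant RSV complex (10 nM), RNA oligonucleotides, Tris-HCl pH 7.5, 6 mM MgCl2, inhibitor titration, 2 h at 30 °C, EDTA stop.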

[2] = Cytotoxicity Determination (CCK-8, without addition of virus); format: cell-based; conditions: human, 50% cytotoxicity concentration (CC50)
Procedure, shortened: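 Cytotoxicity was measured by CCK-8 after 3-4 hours at 37 °C, following 5 days of uninfected exposure at 37 °C and 5% CO2. Compounds ran as duplicate 7-point 1/2 dilutions starting at 100 μM, with 1% final DMSO. HEp-2 cells had been plated at 1,500/well the day before.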

[3] = HEp-2, 120 h, read-out: 50% effective concentration (EC50), HEp-2 cells infected with RSV long strain, 5 days, CCK-8 readout
[4] = 120 h, read-out: 50% effective concentration (EC50), HEp-2 cells infected with RSV long strain, 5 days, CCK-8 readout

Sequence of recombinant RSV complex (P28887 whole entry): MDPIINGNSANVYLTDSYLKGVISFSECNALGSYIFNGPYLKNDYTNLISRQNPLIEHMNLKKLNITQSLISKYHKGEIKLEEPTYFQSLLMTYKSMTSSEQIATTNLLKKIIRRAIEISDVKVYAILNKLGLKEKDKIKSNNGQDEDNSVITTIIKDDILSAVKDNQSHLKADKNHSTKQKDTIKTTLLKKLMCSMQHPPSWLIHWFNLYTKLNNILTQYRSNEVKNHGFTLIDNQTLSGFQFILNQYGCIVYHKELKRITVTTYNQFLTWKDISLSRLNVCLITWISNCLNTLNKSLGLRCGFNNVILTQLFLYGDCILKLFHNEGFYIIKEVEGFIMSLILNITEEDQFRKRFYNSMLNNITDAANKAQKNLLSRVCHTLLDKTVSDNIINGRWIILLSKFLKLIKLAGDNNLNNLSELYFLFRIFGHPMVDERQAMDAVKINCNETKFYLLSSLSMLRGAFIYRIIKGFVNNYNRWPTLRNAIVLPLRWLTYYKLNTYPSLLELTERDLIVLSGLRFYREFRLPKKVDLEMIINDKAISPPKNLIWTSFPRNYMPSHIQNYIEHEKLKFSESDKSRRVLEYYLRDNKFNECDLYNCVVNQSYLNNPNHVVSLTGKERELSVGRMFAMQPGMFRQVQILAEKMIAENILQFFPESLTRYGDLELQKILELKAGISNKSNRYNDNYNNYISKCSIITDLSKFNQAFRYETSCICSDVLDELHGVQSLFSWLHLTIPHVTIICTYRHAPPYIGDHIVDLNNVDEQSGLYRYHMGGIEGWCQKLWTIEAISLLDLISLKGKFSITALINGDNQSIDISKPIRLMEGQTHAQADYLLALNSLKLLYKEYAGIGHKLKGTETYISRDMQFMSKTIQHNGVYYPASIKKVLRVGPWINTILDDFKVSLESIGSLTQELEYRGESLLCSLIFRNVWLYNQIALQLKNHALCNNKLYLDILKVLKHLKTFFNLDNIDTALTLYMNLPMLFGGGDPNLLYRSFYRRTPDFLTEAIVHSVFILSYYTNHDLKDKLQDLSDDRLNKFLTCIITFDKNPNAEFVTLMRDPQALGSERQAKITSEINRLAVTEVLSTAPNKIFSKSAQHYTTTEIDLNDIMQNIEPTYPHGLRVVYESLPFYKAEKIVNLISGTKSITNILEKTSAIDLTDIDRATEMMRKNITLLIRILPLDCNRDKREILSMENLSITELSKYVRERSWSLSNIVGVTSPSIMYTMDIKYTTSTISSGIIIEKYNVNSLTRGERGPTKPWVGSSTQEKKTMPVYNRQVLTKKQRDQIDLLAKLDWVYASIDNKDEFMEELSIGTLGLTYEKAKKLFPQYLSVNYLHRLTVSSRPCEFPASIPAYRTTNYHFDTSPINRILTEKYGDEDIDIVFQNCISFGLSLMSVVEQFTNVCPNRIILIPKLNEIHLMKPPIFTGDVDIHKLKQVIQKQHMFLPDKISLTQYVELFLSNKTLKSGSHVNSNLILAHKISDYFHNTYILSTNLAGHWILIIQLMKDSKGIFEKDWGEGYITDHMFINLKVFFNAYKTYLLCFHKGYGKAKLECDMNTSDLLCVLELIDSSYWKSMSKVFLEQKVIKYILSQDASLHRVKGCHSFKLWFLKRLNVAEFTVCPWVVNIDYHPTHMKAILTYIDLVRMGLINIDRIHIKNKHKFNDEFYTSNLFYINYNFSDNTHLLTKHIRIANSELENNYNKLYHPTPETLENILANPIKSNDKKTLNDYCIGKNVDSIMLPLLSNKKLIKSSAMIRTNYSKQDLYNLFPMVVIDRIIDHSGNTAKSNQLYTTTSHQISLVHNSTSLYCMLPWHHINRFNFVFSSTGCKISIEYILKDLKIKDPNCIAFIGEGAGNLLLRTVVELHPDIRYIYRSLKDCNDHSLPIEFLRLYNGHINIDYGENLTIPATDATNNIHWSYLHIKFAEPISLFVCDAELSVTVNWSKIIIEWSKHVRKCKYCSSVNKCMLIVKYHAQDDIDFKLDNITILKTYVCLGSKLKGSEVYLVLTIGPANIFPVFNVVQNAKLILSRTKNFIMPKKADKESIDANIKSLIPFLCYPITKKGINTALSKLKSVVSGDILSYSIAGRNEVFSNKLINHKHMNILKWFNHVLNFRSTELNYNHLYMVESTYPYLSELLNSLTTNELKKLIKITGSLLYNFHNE
Sequence of recombinant RSV complex (P03421 whole entry, further chain): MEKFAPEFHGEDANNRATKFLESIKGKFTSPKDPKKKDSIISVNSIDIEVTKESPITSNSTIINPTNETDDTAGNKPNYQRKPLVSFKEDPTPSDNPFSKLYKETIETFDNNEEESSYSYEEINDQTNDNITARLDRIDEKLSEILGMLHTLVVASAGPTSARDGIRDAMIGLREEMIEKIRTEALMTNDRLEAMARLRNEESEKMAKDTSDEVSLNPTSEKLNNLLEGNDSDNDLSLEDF

SMILES | EC50 [1, 3] | EC50 (RSV replicon) | IC50 (recombinant RSV complex) | CC50 at 5 days [2] | EC50 [1, 4]
COc1ccc(C(O)(CO)CNC(=O)c2cc(OC)c3ncccc3c2)nc1-c1ccc(F)c(Cl)c1 (stereo not shown) [Compound 453] | < 1000 nM | < 1000 nM | < 1000 nM | 10000 to 100000 nM | 
COc1cc(C(=O)NCC(O)(c2ccc(OC)c(-c3ccc(F)c(Cl)c3)n2)C2CC2)ccc1OCCF (stereo not shown) [Compound 123] | < 1000 nM | < 1000 nM | < 1000 nM | > 100000 nM | 
COc1cc(C(=O)NCC(O)(c2cc(C(C)(N)CF)cc(-c3ccc(F)c(Cl)c3)n2)C(F)(F)F)ccc1OC1CC1 (stereo not shown) [Compound 534] | < 1000 nM | < 1000 nM | < 1000 nM | 10000 to 100000 nM | 
COCC(C)(N)c1cc(-c2ccc(F)c(Cl)c2)nc(C(O)(CNC(=O)c2ccc(OC3CC3)c(OC)c2)C(F)(F)F)c1 (stereo not shown) [Compound 535] | < 1000 nM | < 1000 nM | < 1000 nM | 10000 to 100000 nM | 
COc1cc(C(=O)NCC(O)(c2cc(C(C)(C)N)cc(-c3ccc(F)cc3)n2)C(F)(F)F)ccc1OC[C@@H](C)O (stereo partly shown) [Compound 586] | < 1000 nM | < 1000 nM | < 1000 nM | 10000 to 100000 nM | 
CCNC(C)(C)c1cc(-c2ccc(F)cc2)nc(C(O)(CNC(=O)c2ccc(OC3CC3)c(OC)c2)C(F)(F)F)c1 (stereo not shown) [Compound 388] | < 1000 nM | < 1000 nM | < 1000 nM | 10000 to 100000 nM | 
COc1cc(C(=O)NCC(O)(c2cc(C(C)(C)NC(C)C)cc(-c3ccc(F)c(Cl)c3)n2)C(F)(F)F)ccc1OC1CC1 (stereo not shown) [Compound 392] | < 1000 nM | < 1000 nM | < 1000 nM | 10000 to 100000 nM | 
COc1cc(C(=O)NCC(O)(c2cc3c(c(-c4ccc(F)c(Cl)c4)n2)OCC3(C)C)C2CC2)ccc1OC1CCNC1=O (stereo not shown) [Compound 223] | < 1000 nM | < 1000 nM | < 1000 nM | 10000 to 100000 nM | 
CCOc1ccc(C(=O)NCC(O)(c2cc3c(c(-c4ccc(F)c(Cl)c4)n2)OCC3(C)N)C(F)(F)F)cc1OC (stereo not shown) [Compound 498] | < 1000 nM | < 1000 nM | < 1000 nM | 10000 to 100000 nM | 
COc1cc(C(=O)NCC(O)(c2ccc(OC)c(-c3ccc(F)c(Cl)c3)n2)C(F)F)ccc1OC[C@@H](C)O (stereo partly shown) [Compound 444] | < 1000 nM | < 1000 nM | < 1000 nM | 10000 to 100000 nM | 
COc1cc(C(=O)NCC(O)(c2ccc(OC)c(-c3ccc(F)c(Cl)c3)n2)C(F)(F)F)ccc1OCC(N)=O (stereo not shown) [Compound 240] |  | < 1000 nM | < 1000 nM | 10000 to 100000 nM | < 1000 nM
COc1cc(C(=O)NCC(O)(c2ccc(OC)c(-c3ccc(F)c(Cl)c3)n2)C(F)(F)F)ccc1OC1CC1 (stereo not shown) [Compound 370] |  | < 1000 nM | < 1000 nM | > 100000 nM | < 1000 nM
COc1cc(C(=O)NCC(O)(c2ccc(OC)c(-c3ccc(F)c(Cl)c3)n2)C(F)(F)F)ccc1OC1CC1(F)F (stereo not shown) [Compound 358] | < 1000 nM | < 1000 nM | < 1000 nM | > 100000 nM | 
COc1cc(C(=O)NCC(O)(c2ccc(OC)c(-c3ccc(F)c(Cl)c3)n2)C(F)(F)F)ccc1OC1CCC1 (stereo not shown) [Compound 245] | < 1000 nM | < 1000 nM | < 1000 nM | > 100000 nM | 
CCOc1ccc(C(=O)NCC(C)(O)c2ccc(OC)c(-c3c[nH]c4c(F)cccc34)n2)cc1OC (racemic) [Compound 116] | < 1000 nM | < 1000 nM | < 1000 nM | 10000 to 100000 nM | 
COc1cc(C(=O)NCC(O)(CC2CNC2)c2ccc(OC)c(-c3ccc(F)c(Cl)c3)n2)ccc1OC1CC1 (stereo not shown) [Compound 461] | < 1000 nM | 1000 to 50000 nM | < 1000 nM | 10000 to 100000 nM | 

SMILES | EC50 [1, 3] | EC50 (RSV replicon) | IC50 (recombinant RSV complex) | CC50 at 5 days [2] | EC50 [1, 4]
COc1cc(C(=O)NCC(O)(c2cc3c(c(-c4ccc(F)c(Cl)c4)n2)OCC3C)C2CC2)ccc1OCCO (stereo not shown) [Compound 308] | < 1000 nM | < 1000 nM | < 1000 nM | 10000 to 100000 nM | 
COC(=O)CNC(C)(C)c1cc(-c2ccc(F)c(Cl)c2)nc(C(O)(CNC(=O)c2ccc(OC3CC3)c(OC)c2)C(F)(F)F)c1 (stereo not shown) [Compound 500] |  | < 1000 nM | < 1000 nM | 10000 to 100000 nM | < 1000 nM
COc1cc(C(=O)NCC(O)(c2cc3c(c(-c4ccc(F)cc4)n2)OCC3(C)N)C(F)(F)F)ccc1OCC(N)=O (stereo not shown) [Compound 543] | < 1000 nM | < 1000 nM | < 1000 nM | 10000 to 100000 nM | 
COc1cc(C(=O)NCC(O)(c2cc(C(C)(C)N)cc(-c3ccc(F)cc3)n2)C(F)(F)F)cnc1OCCO (stereo not shown) [Compound 643] | < 1000 nM | < 1000 nM | < 1000 nM | > 100000 nM | 
COc1cc(C(=O)NCC(O)(c2cc(C(C)(C)N)cc(-c3ccc(F)c(Cl)c3)n2)C(F)(F)F)cc2cccnc12 (stereo not shown) [Compound 321] | < 1000 nM | < 1000 nM | < 1000 nM | 10000 to 100000 nM | 
COc1cc(C(=O)NCC(O)(c2ccc(OC)c(-c3ccc(F)c(Cl)c3)n2)C(F)(F)F)ccc1OC1COC1 (stereo not shown) [Compound 250] |  | < 1000 nM | < 1000 nM | 10000 to 100000 nM | < 1000 nM
COc1cc(C(=O)NCC(O)(c2cc3c(c(-c4ccc(F)c(C(F)(F)F)c4)n2)OCC3(C)N)C(F)(F)F)ccc1CO[C@@H](C)O (stereo partly shown) [Compound 665] | < 1000 nM | < 1000 nM | < 1000 nM | 10000 to 100000 nM | 
CCNC(=O)NC(C)(C)c1cc(-c2ccc(F)c(Cl)c2)nc(C(O)(CNC(=O)c2ccc(OC3CC3)c(OC)c2)C(F)(F)F)c1 (stereo not shown) [Compound 387] | < 1000 nM | < 1000 nM | < 1000 nM | > 100000 nM | 
CCOc1ccc(C(=O)NCC(O)(c2cc(C(C)(C)N)cc(-c3ccc(F)c(Cl)c3)n2)C(F)(F)F)cc1OC (stereo not shown) [Compound 315] | < 1000 nM | < 1000 nM | < 1000 nM | 10000 to 100000 nM | 
COc1cc(C(=O)NCC(O)(c2ccc(OC)c(-c3ccc(F)c(Cl)c3)n2)C2CC2)ccc1OCC(N)=O (single isomer, unassigned) [Compound 431] | < 1000 nM | < 1000 nM | < 1000 nM | 10000 to 100000 nM | 
CCC(O)(CNC(=O)c1ccc(OCCF)c(OC)c1)c1ccc(OC)c(-c2ccc(F)c(Cl)c2)n1 (racemic) [Compound 122] | < 1000 nM | < 1000 nM | < 1000 nM | 10000 to 100000 nM | 
COc1cc(C(=O)NCC(O)(c2cc(C3(N)CC3)cc(-c3ccc(F)cc3)n2)C(F)(F)F)ccc1OC[C@@H](C)O (stereo partly shown) [Compound 598] | < 1000 nM | < 1000 nM | < 1000 nM | 10000 to 100000 nM | 
COc1ccc(C(=O)NCC(O)(c2ccc(OC)c(-c3ccc(F)c(Cl)c3)n2)C2CC2)cc1OC (stereo not shown) [Compound 359] | < 1000 nM | < 1000 nM | < 1000 nM | 10000 to 100000 nM | 
COc1cc(C(=O)NCC(O)(c2ccc(OC)c(-c3ccc(F)c(Cl)c3)n2)C(F)(F)F)ccc1OCC(C)=O (stereo not shown) [Compound 362] | < 1000 nM | < 1000 nM | < 1000 nM | 10000 to 100000 nM | 
COc1cc(C(=O)NCC(O)(c2cc(C(C)(C)NC(C)=O)cc(-c3ccc(F)cc3)n2)C(F)(F)F)ccc1OCC(N)=O (stereo not shown) [Compound 621] | < 1000 nM | < 1000 nM | < 1000 nM | > 100000 nM | 
